Our source for the melting point and IC50 values is US7495001B2, “Benzannelated derivatives, their manufacture and use as pharmaceutical agents” (Hoffmann-La Roche Inc., priority 2003, dated 2009).

Each structure is given as a SMILES string. pIC50: −log10 of the molar value.

The target in one data set is T1, PPARγ (Mus musculus, UniProt P37238).
T1 construct: PPARγ (aa 174 to 476); made in house; host or cells: E. coli BL21 (pLysS)
T1 sequence (P37238 204-505): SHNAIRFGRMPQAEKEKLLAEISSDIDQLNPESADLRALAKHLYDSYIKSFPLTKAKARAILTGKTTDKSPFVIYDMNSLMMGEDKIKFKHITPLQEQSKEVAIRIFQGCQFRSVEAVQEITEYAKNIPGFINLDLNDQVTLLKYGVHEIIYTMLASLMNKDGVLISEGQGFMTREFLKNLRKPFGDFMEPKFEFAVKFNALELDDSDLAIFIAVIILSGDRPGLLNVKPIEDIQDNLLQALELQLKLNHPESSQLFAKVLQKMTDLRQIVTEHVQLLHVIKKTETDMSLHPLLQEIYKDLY
The data set can be described thus: PPARγ radioligand binding assay (scintillation proximity, GST-PPARγ-LBD). The settings on record: GST-PPARγ-LBD fusion protein, SPA radioligand binding. The text has this:
(§1) Background information on the performed assays can be found in: Nichols J S et al. “Development of a scintillation proximity assay for peroxisome proliferator-activated receptor gamma ligand binding domain”, (1998) Anal. Biochem. 257:112-119.
(§2) Full-length cDNA clones for humans PPARδ and PPARα and mouse PPARγ were obtained by RT-PCR from human adipose and mouse liver cRNA, respectively, cloned into plasmid vectors and verified by DNA sequencing. Bacterial and mammalian expression vectors were constructed to produce glutathione-s-transferase (GST) and Gal4 DNA binding domain proteins fused to the ligand binding domains (LBD) of PPARδ (aa 139 to 442), PPARγ (aa 174 to 476) and PPARα (aa 167 to 469). To accomplish this, the portions of the cloned sequences encoding the LBDs were amplified from the full-length clones by PCR and then subcloned into the plasmid vectors. Final clones were verified by DNA sequence analysis.
(§3) Induction, expression, and purification of GST-LBD fusion proteins were performed in E. coli strain BL21 (pLysS) cells by standard methods (Ref: Current Protocols in Molecular Biology, Wiley Press, edited by Ausubel et al.).
(§4) Radioligand Binding Assay
(§5) PPARγ receptor binding was assayed in TKE50 (50 mM Tris-HCl, pH 8, 50 mM KCl, 2 mM EDTA, 0.1 mg/ml fatty acid-free BSA and 10 mM DTT). For each 96 well reaction an 140 ng equivalent of GST-PPARγ-LBD fusion protein was bound to 10 μg SPA beads (PharmaciaAmersham) in a final volume of 50 ul by shaking. The resulting slurry was incubated for 1 h at RT and centrifuged for 2 min at 1300 g. The supernatant containing unbound protein was removed and the semidry pellet containing the receptor-coated beads was resolved in 50 ul of TKE. […] All binding assays were performed in 96 well plates and the amount of bound ligand measured on a Packard TopCount using OptiPlates (Packard). Nonspecific binding was determined in the presence of 10^−4 M unlabelled compound. […]
On the technique in general: Scintillation proximity formats need no separation of bound from free tracer.

The target in the next data set is T2, PPARδ (Homo sapiens, UniProt Q03181).
T2 construct: PPARδ (aa 139 to 442); made in house; host or cells: E. coli BL21 (pLysS)
T2 sequence (Q03181 139-441 limits assumed): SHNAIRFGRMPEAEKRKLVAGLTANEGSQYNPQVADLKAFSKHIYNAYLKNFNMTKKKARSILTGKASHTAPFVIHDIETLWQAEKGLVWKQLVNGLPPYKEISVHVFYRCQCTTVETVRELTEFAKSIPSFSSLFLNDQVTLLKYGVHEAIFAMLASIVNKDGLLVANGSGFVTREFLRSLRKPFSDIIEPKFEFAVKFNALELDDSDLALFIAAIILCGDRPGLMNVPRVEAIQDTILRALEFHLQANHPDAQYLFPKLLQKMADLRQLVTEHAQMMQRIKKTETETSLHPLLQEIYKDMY
The data set can be described thus: PPARδ radioligand binding assay (scintillation proximity, GST-PPARδ-LBD). The settings on record: GST-PPARδ-LBD fusion protein, SPA radioligand binding.
Description: as §1, §2, §3, §4
PPARδ receptor binding was assayed in HNM10 (50 mM Hepes, pH 7.4, 10 mM NaCl, 5 mM MgCl2, 0.15 mg/ml fatty acid-free BSA and 15 mM DTT). For each 96 well reaction a 500 ng equivalent of GST-PPARδ-LBD fusion protein and radioligand, e.g. 20000 dpm {2-methyl-4-[4-methyl-2-(4-trifluoromethyl-phenyl)-thiazol-5-yl-ditritiomethylsulfanyl]-phenoxy}-acetic acid, was bound to 10 μg SPA beads (PharmaciaAmersham) in a final volume of 50 μl by shaking. The resulting slurry was incubated for 1 h at RT and centrifuged for 2 min at 1300 g. […] Radioligand was added and the reaction incubated at RT for 1 h and scintillation proximity counting performed in the presence of test compounds was determined. All binding assays were performed in 96 well plates and the amount of bound ligand was measured on a Packard TopCount using OptiPlates (Packard). […]

In the next data set the target is T3, PPARα (Homo sapiens, UniProt Q07869).
T3 construct: PPARα (aa 167 to 469); made in house; host or cells: E. coli BL21 (pLysS)
T3 sequence (Q07869 167-468 limits assumed): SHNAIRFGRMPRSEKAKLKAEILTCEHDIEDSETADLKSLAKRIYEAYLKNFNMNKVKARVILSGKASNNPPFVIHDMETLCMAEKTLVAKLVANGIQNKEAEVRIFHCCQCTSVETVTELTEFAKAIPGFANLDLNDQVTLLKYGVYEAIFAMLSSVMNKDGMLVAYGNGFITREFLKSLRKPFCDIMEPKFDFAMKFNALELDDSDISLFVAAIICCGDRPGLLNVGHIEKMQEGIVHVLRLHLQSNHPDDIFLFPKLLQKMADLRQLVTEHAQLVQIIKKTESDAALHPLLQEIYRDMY
Nature of the data set: PPARα radioligand binding assay (scintillation proximity, GST-PPARα-LBD). The settings on record: GST-PPARα-LBD fusion protein, SPA radioligand binding.
Description: as §1, §2, §3, §4
as §5, with “PPARα receptor” for “PPARγ receptor”, “of GST-PPARα-LBD” for “of GST-PPARγ-LBD”, “50 μl” for “50 ul”

Regarding `Cc1nc(-c2ccc(C(F)(F)F)cc2)ccc1C(C)N(C)c1ccc(OCC(=O)O)c2ccccc12` (racemic) [Example 1, [rac]-[4-(Methyl-{1-[2-methyl-6-(4-trifluoromethyl-phenyl)-pyridin-3-yl]-ethyl}-amino)-naphthalen-1-yloxy]-acetic acid], the melting point fell in the range of 157 to 158 °C.
Take `CCC(c1ccc(-c2cccc(C(F)(F)F)c2)nc1C)N(C)c1ccc(OCC(=O)O)c2ccccc12` (racemic) [Example 2, [rac]-[4-(Methyl-{1-[2-methyl-6-(3-trifluoromethyl-phenyl)-pyridin-3-yl]-propyl}-amino)-naphthalen-1-yloxy]-acetic acid]: the melting point is 76 to 78 °C.
Regarding `CCCC(c1ccc(-c2cccc(C(F)(F)F)c2)nc1C)N(C)c1ccc(OCC(=O)O)c2ccccc12` (racemic) [Example 3, [rac]-[4-(Methyl-{1-[2-methyl-6-(3-trifluoromethyl-phenyl)-pyridin-3-yl]-butyl}-amino)-naphthalen-1-yloxy]-acetic acid], the pIC50 was under 5.00 at PPARγ, 7.19 at PPARδ and 5.45 on PPARα.
The like results for `COC(Cc1cc(OCCc2ccc(-c3ccc(C(F)(F)F)cc3)nc2C)c2ccccc2c1)C(=O)O` (racemic) [Example 4, [rac]-2-Methoxy-3-(4-{2-[2-methyl-6-(4-trifluoromethyl-phenyl)-pyridin-3-yl]-ethoxy}-naphthalen-2-yl)-propionic acid] were, in that order, under 5.00, 6.53 and 7.43.
In the case of `Cc1nc(-c2ccc(C(F)(F)F)cc2)ccc1COc1ccc(CCC(=O)O)c2c1CCCC2` [Example 5, 3-{4-[2-Methyl-6-(4-trifluoromethyl-phenyl)-pyridin-3-ylmethoxy]-5,6,7,8-tetrahydro-naphthalen-1-yl}-propionic acid], the pIC50 on PPARγ was under 5.00; on PPARδ it was 6.97; on PPARα, 6.15.

A word on the melting point: it is the temperature of the solid-liquid transition. The pIC50 is the negative decadic logarithm of the IC50, by convention in mol/L.
